Data from patent publication US10087148B2, “Quinazolines as biogenic amine transport modulators” (THE UNITED STATES OF AMERICA AS REPRESENTED BY THE …, priority 2014, dated 2018).

Tests used:
[1] = target: norepinephrine transporter (NET) (Rattus norvegicus, UniProt Q63380); experiment: [3H]norepinephrine (NE) uptake inhibition in rat brain synaptosomes; format: biochemical; conditions: for NE Uptake Emax / EC50: rat brain synaptosomes, 10 nM [3H]norepinephrine, mean ± SD; for EC50: read-out: NE Uptake EC50; for Emax: read-out: NET Uptake Emax; for IC50: read-out: NET Uptake IC50
norepinephrine transporter (NET), sequence (Q63380 1-617): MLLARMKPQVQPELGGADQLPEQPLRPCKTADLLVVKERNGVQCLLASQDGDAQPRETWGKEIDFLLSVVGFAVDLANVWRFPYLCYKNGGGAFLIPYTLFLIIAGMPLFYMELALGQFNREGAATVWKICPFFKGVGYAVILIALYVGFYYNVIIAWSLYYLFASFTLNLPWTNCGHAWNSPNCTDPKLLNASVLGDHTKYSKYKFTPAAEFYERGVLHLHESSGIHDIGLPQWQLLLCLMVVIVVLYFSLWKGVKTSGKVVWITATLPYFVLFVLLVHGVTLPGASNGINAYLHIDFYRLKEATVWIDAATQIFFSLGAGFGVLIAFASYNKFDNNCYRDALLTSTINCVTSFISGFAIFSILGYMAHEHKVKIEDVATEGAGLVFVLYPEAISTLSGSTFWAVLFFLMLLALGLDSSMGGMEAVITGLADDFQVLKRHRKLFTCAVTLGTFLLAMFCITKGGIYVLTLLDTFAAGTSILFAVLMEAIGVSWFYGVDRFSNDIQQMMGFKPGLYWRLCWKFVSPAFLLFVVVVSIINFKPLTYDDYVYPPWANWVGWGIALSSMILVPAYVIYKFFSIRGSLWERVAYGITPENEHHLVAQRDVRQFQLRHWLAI
Protocol: Uptake inhibition assay for the norepinephrine transporter was conducted in rat brain synaptosomes as described elsewhere with minor modifications (Rothman et al., Synapse 39, 32-41 (2001)). Freshly removed whole brain minus cerebellum and caudate was homogenized in 10% ice-cold sucrose with 12 strokes of a hand-held Potter-Elvehjem homogenizer followed by centrifugation at 1000×g for 10 minutes. The supernatants were saved on ice and used immediately. Transporter activity at NET was assessed using 10 nM [^3H]norepinephrine. The assay buffer was Krebs-phosphate buffer containing 154.4 mM NaCl, 2.9 mM KCl, 1.1 mM CaCl2, 0.83 mM MgCl2, 5 mM glucose, 1 mg/mL ascorbic acid, and 50 μM pargyline. […] Uptake inhibition assays were conducted at 37° C. and were initiated by adding 100 μL of tissue to 900 μL assay buffer containing test drug and [^3H]norepinephrine. Test drugs were diluted in assay buffer containing 1 mg/mL bovine serum albumin. Nonspecific uptake was measured by incubating in the presence of 10 μM indatraline. The reactions were stopped after 10 minutes by rapid vacuum filtration with a cell harvester (BRANDEL) over GF/B filters (Whatman) presoaked in wash buffer maintained at 25° C. (10 mM Tris-HCl, pH 7.4/150 mM NaCl). Filters were rinsed with 6 mL wash buffer and retained tritium was quantified by a MicroBeta liquid scintillation counter (PerkinElmer) after overnight extraction in 0.6 mL of liquid scintillation cocktail (Cytoscint, ICN). The data from three experiments were pooled and fit to a dose-response curve equation (using Kaleidagraph), to yield an Emax and EC50 value.

[2] = target: serotonin transporter (SERT) (Rattus norvegicus (Rat), UniProt P31652); experiment: [3H]serotonin (5-HT) uptake inhibition in rat brain synaptosomes; format: biochemical; conditions: for Emax: read-out: SERT Uptake Emax; for 5HT Uptake Emax / EC50: rat brain synaptosomes, 5 nM [3H]serotonin, mean ± SD
serotonin transporter (SERT), sequence (P31652 whole entry): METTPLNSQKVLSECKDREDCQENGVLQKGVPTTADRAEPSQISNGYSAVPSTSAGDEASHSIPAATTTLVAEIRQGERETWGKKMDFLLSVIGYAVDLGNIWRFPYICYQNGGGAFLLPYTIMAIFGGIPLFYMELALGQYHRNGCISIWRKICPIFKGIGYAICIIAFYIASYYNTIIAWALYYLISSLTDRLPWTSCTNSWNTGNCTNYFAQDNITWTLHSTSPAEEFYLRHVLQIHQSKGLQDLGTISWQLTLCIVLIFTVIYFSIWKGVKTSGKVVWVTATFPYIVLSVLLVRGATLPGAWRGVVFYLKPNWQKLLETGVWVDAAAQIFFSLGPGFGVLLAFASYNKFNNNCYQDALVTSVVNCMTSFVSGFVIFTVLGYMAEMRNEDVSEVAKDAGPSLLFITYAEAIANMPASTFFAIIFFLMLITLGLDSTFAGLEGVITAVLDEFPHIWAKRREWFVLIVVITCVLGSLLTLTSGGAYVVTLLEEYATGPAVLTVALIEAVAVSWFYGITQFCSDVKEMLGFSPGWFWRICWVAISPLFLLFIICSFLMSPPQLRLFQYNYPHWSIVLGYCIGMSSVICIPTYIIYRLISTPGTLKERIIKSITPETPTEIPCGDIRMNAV
Protocol: Uptake inhibition assay for the serotonin transporter was conducted in rat brain synaptosomes as described elsewhere with minor modifications (Rothman et al., Synapse 39, 32-41 (2001)). Freshly removed whole brain minus cerebellum and caudate was homogenized in 10% ice-cold sucrose with 12 strokes of a hand-held Potter-Elvehjem homogenizer followed by centrifugation at 1000×g for 10 min. The supernatants were saved on ice and used immediately. Transporter activity at SERT was assessed using 5 nM [^3H]serotonin. The assay buffer was Krebs-phosphate buffer containing 154.4 mM NaCl, 2.9 mM KCl, 1.1 mM CaCl2, 0.83 mM MgCl2, 5 mM glucose, 1 mg/mL ascorbic acid, and 50 μM pargyline. […] Uptake inhibition assays were conducted at 25° C. and were initiated by adding 100 μL of tissue to 900 μL assay buffer containing test drug and [^3H]serotonin. Test drugs were diluted in assay buffer containing 1 mg/mL bovine serum albumin. Nonspecific uptake was measured by incubating in the presence of 10 μM indatraline. The reactions were stopped after 30 min by rapid vacuum filtration with a cell harvester (BRANDEL) over GF/B filters (Whatman) presoaked in wash buffer maintained at 25° C. (10 mM Tris-HCl, pH 7.4/150 mM NaCl). Filters were rinsed with 6 mL wash buffer and retained tritium was quantified by a MicroBeta liquid scintillation counter (PerkinElmer) after overnight extraction in 0.6 mL of liquid scintillation cocktail (Cytoscint, ICN). The data from three experiments were pooled and fit to a dose-response curve equation (using Kaleidagraph), to yield an Emax and EC50 value.

DAT = DAT (Rattus norvegicus (Rat), UniProt P23977); experiment: Inhibition of [3H]WIN35428 binding to rat caudate DAT; conditions: [3H]WIN35428, mean ± S.D., n = 3; for IC50: unit as printed in head (text gives 1100 nM where table prints 1.1)
DAT, sequence (P23977 whole entry): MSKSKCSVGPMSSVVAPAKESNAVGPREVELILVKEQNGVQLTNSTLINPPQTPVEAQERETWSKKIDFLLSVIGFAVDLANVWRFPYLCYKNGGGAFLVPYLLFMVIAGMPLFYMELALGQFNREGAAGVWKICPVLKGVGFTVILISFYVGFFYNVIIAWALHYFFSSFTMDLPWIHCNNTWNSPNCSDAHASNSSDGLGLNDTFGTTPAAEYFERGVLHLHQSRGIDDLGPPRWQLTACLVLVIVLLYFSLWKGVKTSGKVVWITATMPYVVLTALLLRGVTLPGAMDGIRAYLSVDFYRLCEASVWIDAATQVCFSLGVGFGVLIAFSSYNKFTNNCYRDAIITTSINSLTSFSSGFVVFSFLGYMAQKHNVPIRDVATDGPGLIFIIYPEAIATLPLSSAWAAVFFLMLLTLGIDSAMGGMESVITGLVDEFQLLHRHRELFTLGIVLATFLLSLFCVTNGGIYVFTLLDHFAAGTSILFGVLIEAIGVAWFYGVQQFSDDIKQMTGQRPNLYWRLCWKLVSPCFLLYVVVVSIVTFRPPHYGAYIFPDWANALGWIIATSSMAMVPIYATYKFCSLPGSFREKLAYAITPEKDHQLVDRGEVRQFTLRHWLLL
Protocol: All of the test compounds were synthesized as described herein. […] The data from three experiments were pooled and fit to a dose-response curve equation (using KaleidaGraph; Synergy Software, Reading, Pa.) to yield an Emax and IC50 value. […] Selected compounds were also tested for their ability to inhibit [^3H]WIN35428 binding to rat caudate DAT.

[3] = target: dopamine transporter (DAT) (Rattus norvegicus (Rat), UniProt P23977); experiment: [3H]dopamine (DA) uptake inhibition in rat brain (caudate) synaptosomes; format: biochemical; conditions: for Emax: mean ± S.D., n = 3, read-out: DAT Uptake Emax; for DA Uptake Emax / EC50: rat caudate synaptosomes, 5 nM [3H]dopamine, mean ± SD
dopamine transporter (DAT), sequence (P23977 whole entry): as above
Protocol: Uptake inhibition assay for the dopamine transporter was conducted in rat brain synaptosomes as described elsewhere with minor modifications (Rothman et al., Synapse 39, 32-41 (2001)). Freshly removed caudate was homogenized in 10% ice-cold sucrose with 12 strokes of a hand-held Potter-Elvehjem homogenizer followed by centrifugation at 1000×g for 10 min. The supernatants were saved on ice and used immediately. Transporter activity was assessed using 5 nM [^3H]dopamine. The assay buffer was Krebs-phosphate buffer containing 154.4 mM NaCl, 2.9 mM KCl, 1.1 mM CaCl2, 0.83 mM MgCl2, 5 mM glucose, 1 mg/mL ascorbic acid, and 50 μM pargyline. The selectivity of the uptake assay for DAT was optimized by including 100 nM citalopram and 100 nM desipramine as blockers of SERT and NET in the sucrose solution and assay buffer. Uptake inhibition assays were conducted at 25° C. and were initiated by adding 100 μl of tissue to 900 μL assay buffer containing test drug and [^3H]dopamine. Test drugs were diluted in assay buffer containing 1 mg/mL bovine serum albumin. Nonspecific uptake was measured by incubating in the presence of 10 μM indatraline. The reactions were stopped after 15 minutes by rapid vacuum filtration with a cell harvester (BRANDEL) over GF/B filters (Whatman) presoaked in wash buffer maintained at 25° C. (10 mM Tris-HCl, pH 7.4/150 mM NaCl). Filters were rinsed with 6 mL wash buffer and retained tritium was quantified by a MicroBeta liquid scintillation counter (PerkinElmer) after overnight extraction in 0.6 mL of liquid scintillation cocktail (Cytoscint, ICN). The data from three experiments were pooled and fit to a dose-response curve equation (using Kaleidagraph), to yield an Emax and EC50 value.
All of the test compounds were synthesized as described herein. Next, 8-point dose-response curves were generated for each compound (1-20,000 nM) in the [^3H]DA uptake assay. The data from three experiments were pooled and fit to a dose-response curve equation (using KaleidaGraph; Synergy Software, Reading, Pa.) to yield an Emax and IC50 value. […] Selected compounds were also tested for their ability to inhibit [^3H]WIN35428 binding to rat caudate DAT.

Row | SMILES | NET Uptake Emax ([1]; mean ± S.D., n = 3) [%] | SERT Uptake Emax ([2]; mean ± S.D., n = 3) [%] | NE Uptake Emax [1] [% I] | EC50 [1] [nM] | Emax [1] [%] | IC50 ([1]; mean ± S.D., n = 3) [nM] | Emax ([2]; mean ± S.D., n = 3) [%] | 5HT Uptake Emax [2] [% I] | EC50 [2] [nM] | Emax (DAT) [%] | IC50 (DAT) [nM] | Emax [3] [%] | DA Uptake Emax [3] [% I] | EC50 [3] [nM]
1 | COC(=O)[C@H]1[C@@H](OC(=O)c2ccccc2)C[C@@H]2CC[C@H]1N2C [Cocaine, reference compound] | 102 ± 2 | 98 ± 2 | – | – | – | – | – | – | – | – | – | – | – | –
2 | CS(=O)(=O)Nc1ccc(-c2nc(NCC(O)(c3ccccc3)c3ccccc3)c3ccccc3n2)cc1 [Compound 4, N-(4-(4-((2-hydroxy-2,2-diphenylethyl)amino)quinazolin-2-yl)phenyl)methanesulfonamide] | – | – | 70 ± 2 | 426 ± 49 | 70 ± 2 | 426 ± 49 | 55 ± 3 | 55 ± 3 | 50 ± 14 | 47 ± 7 | 970 ± 650 | 70 ± 2 | 70 ± 2 | 11 ± 2
3 | Cc1cc(NS(C)(=O)=O)ccc1-c1nc(NCC(c2ccccc2)c2ccncc2)c2ccccc2n1 (stereo not drawn) [Compound 29, N-(3-methyl-4-(4-((2-phenyl-2-(pyridin-4-yl)ethyl)amino)quinazolin-2-yl)phenyl)methanesulfonamide] | – | – | 71 ± 3 | 31 ± 7 | 71 ± 3 | 31 ± 7 | 58 ± 3 | 58 ± 3 | 8 ± 2.8 | 72 ± 7 | 3150 ± 1110 | 74 ± 4 | 74 ± 4 | 7.4 ± 2
4 | Cc1cc(NS(C)(=O)=O)ccc1-c1nc(NCC(c2ccccc2)c2ccccc2)c2ccccc2n1 [Compound 52, N-(4-(4-((2,2-diphenylethyl)amino)quinazolin-2-yl)-3-methylphenyl)methanesulfonamide] | – | – | – | – | 65 ± 3 | 144 ± 30 | 50 ± 2 | – | – | 60 ± 7 | – | 60 ± 2 | – | –
5 | CS(=O)(=O)Nc1ccc(-c2nc(NCC(c3ccccc3)c3ccccc3)c3ccccc3n2)c(Cl)c1 [Compound 53, N-(3-chloro-4-(4-((2,2-diphenylethyl)amino)quinazolin-2-yl)phenyl)methanesulfonamide] | – | – | – | – | 67 ± 2 | 47 ± 10 | 51 ± 2 | – | – | 30 ± 3 | – | 67 ± 1 | – | –
6 | CSc1ncc(-c2nc(NCC(c3ccccc3)c3ccccc3)c3ccccc3n2)cn1 [SRI-29338] | – | – | – | – | 62 ± 3 | 204 ± 47 | 52 ± 3 | – | – | 63 ± 4 | 1180 ± 930 | 71 ± 2 | – | –
7 | CNc1ncc(-c2nc(NCC(c3ccccc3)c3ccccc3)c3ccccc3n2)cn1 [SRI-29554] | – | – | – | – | 78 ± 2 | 179 ± 27 | 60 ± 3 | – | – | 59 ± 6 | 980 ± 460 | 71 ± 1 | – | –
8 | Cn1cc2cc(-c3nc(NCC(c4ccccc4)c4ccccc4)c4ccccc4n3)ccc2n1 [SRI-29776] | – | – | – | – | 71 ± 3 | 229 ± 43 | 61 ± 2 | – | – | 58 ± 3 | 6090 ± 970 | 69 ± 2 | – | –
9 | CN(C)c1ncc(-c2nc(NCC(O)(c3ccccc3)c3ccccc3)c3ccccc3n2)cn1 [SRI-29982] | – | – | – | – | 71 ± 2 | 259 ± 41 | 51 ± 1 | – | – | 47 ± 6 | 2460 ± 1210 | 73 ± 2 | – | –
10 | OC(CNc1nc(-c2ccc3[nH]ccc3c2)nc2ccccc12)(c1ccccc1)c1ccccc1 [SRI-29983] | – | – | – | – | 73 ± 6 | 203 ± 79 | 57 ± 2 | – | – | 55 ± 3 | 1290 ± 340 | 70 ± 2 | – | –
11 | c1ccc(C(CNc2nc(-c3cnc4nccn4c3)nc3ccccc23)c2ccccn2)cc1 (stereo not drawn) [SRI-30507] | – | – | – | – | 77 ± 2 | 132 ± 16 | 54 ± 2 | – | – | 62 ± 7 | 4800 ± 1810 | 71 ± 2 | – | –
12 | OC(CNc1nc(-c2cnc3nccn3c2)nc2ccccc12)(c1ccccc1)c1ccccc1 [SRI-30508] | – | – | – | – | 76 ± 9 | 69 ± 18 | 56 ± 1 | – | – | 34 ± 3 | 150 ± 90 | 65 ± 1 | – | –
13 | c1ccc(C(CNc2nc(-c3ccc4nccn4c3)nc3ccccc23)C2CCCCC2)cc1 (stereo not drawn) [SRI-30513] | – | – | – | – | 65 ± 4 | 153 ± 55 | 59 ± 4 | – | – | 50 ± 4 | 2970 ± 1030 | 72 ± 2 | – | –
14 | c1ccc(C(CNc2nc(-c3ccc4nccn4c3)nc3ccccc23)c2cccnc2)cc1 (stereo not drawn) [SRI-30946] | – | – | – | – | 75 ± 3 | 78 ± 17 | 59 ± 3 | – | – | 44 ± 3 | 1170 ± 320 | 70 ± 2 | – | –
